Source: patent publication US12024543B2, “Micropeptides and use of same for modulating gene expression” (UNIVERSITE PAUL SABATIER TOULOUSE III, priority 2013, dated 2024)

What was measured:
AtmiR319a = assay: Expression of AtmiPEP319a2 (AtmiORF319a) in tobacco expressing AtmiR319a; assay type: in vivo, Nicotiana benthamiana; details: overexpression of AtmiORF319a
Procedure: At present, AtmiPEP165a and AtmiPEP319a2, identified in Arabidopsis thaliana, have already been characterized.
(§1) The total RNA was extracted from roots of M. truncatula or from tobacco leaves using the extraction kit RNeasy Plant Mini Kit (Qiagen). The reverse transcription was performed using the reverse transcriptase SuperScript II (Invitrogen) starting from 500 ng of total RNA. Three repetitions (n=3) were carried out, each with two technical repetitions. Each experiment was repeated from two to three times. The amplifications by qPCR were carried out using a LightCycler 480 System thermocycler (Roche Diagnostics) by the method described in Lauressergues et al. (Plant J., 72(3): 512-22, 2012).
For the miPEPs 165a and 319a, the corresponding miORFs were cloned into pBIN19 by the method described in Combier et al. (Genes & Dev, 22: 1549-1559, 2008).
(§2) The composite plants having roots transformed with Agrobacterium rhizogenes were obtained by the method described in Boisson-Dernier et al. (Mol Plant-Microbe Interact, 18: 1269-1276, 2005). The transformed roots were verified and selected by observations of DsRED with a binocular fluorescence magnifier. The control roots correspond to roots transformed with A. rhizogenes not containing the pPEX-DsRED vector. Transformation of the tobacco leaves was carried out by the method described in Combier et al. (Genes & Dev, 22: 1549-1559, 2008).

AtmiR164a = assay: Northern blot of miR164a in A. thaliana roots treated with synthetic AtmiPEP164a; assay type: in vivo, Arabidopsis thaliana; details: 0.1 μM synthetic miPEP164a in water vs water
Procedure: Northern blot analysis was carried out according to the protocol described in Lauressergues et al. Plant J, 72(3): 512-22, 2012.
The biological samples were homogenized in a buffer containing 0.1 M of NaCl, 2% of SDS, 50 mM of Tris-HCl (pH 9), 10 mM of EDTA (pH 8) and 20 mM of mercaptoethanol, and the RNA was extracted twice with a phenol/chloroform mixture and was precipitated with ethanol.
The RNA was loaded on PAGE 15% gel and transferred to a nylon membrane (HybondNX, Amersham). RNA was hybridized with a radioactive oligonucleotide probe labelled at its end, in order to detect the RNA U6 or for miR164a.
The hybridizations were carried out at 55° C. The hybridization signals were quantified using a phosphorimager (Fuji) and normalized with the signal of the specific probe of RNA U6.

Arabidopsis thaliana = assay: Growth of Arabidopsis thaliana plants watered with synthetic miPEP; assay type: in vivo; details: A. thaliana; watered with 0.1 μM synthetic peptide, 3 weeks of growth, vs water
Procedure: The photographs show two plants (top views and side views) after 3 weeks of growth: a control plant watered with water (A), and a plant watered with a composition of 0.1 μM of synthetic peptide corresponding to AtmiPEP164a (B).
The photographs show two plants (top views and side views) after 3 weeks of growth: a control plant watered with water (A), and a plant watered with a composition of 0.1 μM of synthetic peptide corresponding to AtmiPEP319a1 (B).

MtmiR171b [1] = assay: Regulation of MtmiR171b by MtmiPEP171b1 in transformed tobacco leaves; assay type: in vivo, Nicotiana benthamiana; details: for relative expression of pre-MtmiR171b (expression of MtmiR171b): co-expression of MtmiPEP171b1 (MtmiORF171b ATG vs ATT), FIG. 7
Procedure: In order to determine whether the mechanism of regulation of the microRNAs is conserved in other plant species, the regulation of MtmiR171b by MtmiPEP171b1 was tested in a different cellular model. For this, MtmiR171b and MtmiPEP171b1 were introduced into tobacco leaves.
The accumulation of MtmiR171b was measured in tobacco leaves transformed in order to express MtmiR171b of Medicago truncatula starting from wild-type pri-miRNA capable of producing MtmiPEP171b1, or starting from a mutated version of pri-miRNA incapable of producing MtmiPEP171b1 (in which the start codon ATG of MtmiORF171b has been replaced with ATT) (FIG. 6 and FIG. 20).
The accumulation of pre-MtmiR171b was measured in tobacco leaves transformed in order to express MtmiR171b of Medicago truncatula alone (control), or additionally expressing the wild-type MtmiORF171b of Medicago truncatula (35SmiPEP171b1 ATG), or a mutated version of MtmiORF171b in which the start codon ATG has been replaced with ATT (35SmiPEP171b1 ATT) (FIG. 7 and FIG. 21).
The leaves were watered by spraying with the peptides using peptide solutions at different concentrations (0.01, 0.1, 1 μM), firstly 12h before sampling and then a second time 30 min before sampling.
as §1
(§3) The DNA fragments of interest were amplified with Pfu polymerase (Promega). The DNA fragments were cloned using the XhoI and NotI enzymes into a pPEX-DsRED plasmid for an overexpression under the control of the constitutive strong promoter 35S, and using the KpnI-NcoI enzymes into a pPEX GUS plasmid for the reporter genes, by the method described in Combier et al. (Genes & Dev, 22: 1549-1559, 2008).
as §2

MtmiR171b [2] = assay: Watering of M. truncatula plants with synthetic MtmiPEP171b1, relative expression by qRT-PCR; assay type: in vivo, Medicago truncatula; details: watering once daily for 5 days with MtmiPEP171b1 at 0.01, 0.1 or 1 μM
Procedure: The surface of seeds of M. truncatula was sterilized and they were left to germinate on agar plates for 5 days at 4° C. in the dark. The young shoots were then grown on 12-cm square plates filled with Fahraeus medium without nitrogen and containing 7.5 μM phosphate (Lauressergues et al., Plant J., 72(3): 512-22, 2012). The lateral roots were counted every day. In pots, the plants were watered every other day with modified Long Ashton medium with low phosphorus content (Balzergue et al., Journal of Experimental Botany, (62)1049-1060, 2011).
The peptides were synthesized by Eurogentec or Smartox-Biotech. MtmiPEP171b1 was resuspended in a solution of 40% water/50% acetonitrile/10% acetic acid (v/v/v), and the other peptides were resuspended in water.
The RNA was extracted using the reagent Tri-Reagent (MRC) according to the manufacturer's instructions, except for precipitation of the RNA, which was carried out with 3 volumes of ethanol. The reverse transcription of the RNA was carried out using the specific stem-loop primer RTprimer171b in combination with hexamers for performing the reverse transcription of RNA of high molecular weight.
In brief, 1 μg of RNA was added to the stem-loop primer MIR171b (0.2 μM), the hexamer (500 ng), the buffer RT (1×), the enzyme SuperScript Reverse transcriptase (SSIII) (one unit), the dNTPs (0.2 mM each), DTT (0.8 mM) in a final reaction mixture of 25 μl. In order to carry out the reverse transcription, a reaction of pulsed reverse transcription was performed (40 repetitions of the following cycle: 16° C. for 2 minutes, 42° C. for one minute and 50° C. for one second, followed by a final inactivation of the reverse transcription at 85° C. for 5 minutes).
as §1
The mean values of the relative expression of the genes or of the production of lateral roots were analysed using the Student test or the Kruskal-Wallis test. The error bars represent the SEM (Standard Error of the Mean). The asterisks indicate a significant difference (p<0.05).

[3] = test system: pre-MtmiR169, pre-MtmiR169a, pre-MtmiR171a, pre-MtmiR171h, pre-MtmiR393a, pre-MtmiR393b, pre-MtmiR396a, pre-MtmiR396b; assay: Specificity of miPEP171b1: expression of different microRNA precursors of M. truncatula; assay type: in vivo, Medicago truncatula; details: overexpression of MtmiPEP171b1 or treatment with MtmiPEP171b1 (0.1 μM), ratio to control roots
Procedure: The expression of different microRNA precursors of Medicago truncatula (MtmiR171b SEQ ID NO: 319, MtmiR169 SEQ ID NO: 367, MtmiR169a SEQ ID NO: 368, MtmiR171a SEQ ID NO: 369, MtmiR171h SEQ ID NO: 370, MtmiR393a SEQ ID NO: 371, MtmiR393b SEQ ID NO: 372, MtmiR396a SEQ ID NO: 373 and MtmiR396b SEQ ID NO: 374) was determined and compared between control plants and plants in which MtmiORF171b encoding MtmiPEP171b1 was overexpressed (FIG. 5A), or between control plants and plants grown on culture medium containing MtmiPEP171b1 (FIG. 5B).
as §1

MtmiR171b [4] = assay: Overexpression of MtmiPEP171b1 (MtmiORF171b) in M. truncatula roots, relative expression by qRT-PCR; assay type: in vivo, Medicago truncatula; details: vs control plant
Procedure: as §1, §3, §2

Medicago truncatula = assay: Number of lateral roots in M. truncatula; assay type: in vivo; details: vs control plant
Procedure: The surface of seeds of M. truncatula was sterilized and they were left to germinate on agar plates for 5 days at 4° C. in the dark. […] The lateral roots were counted every day. […] The mean values of the relative expression of the genes or of the production of lateral roots were analysed using the Student test or the Kruskal-Wallis test. The error bars represent the SEM (Standard Error of the Mean). The asterisks indicate a significant difference (p<0.05).

DmmiR8 = assay: Transfected Drosophila melanogaster S2 cells, relative expression of Pre-miR8; assay type: cell-based
Procedure: S2 cells are cultured in a T75 flask in 12 mL of Schneider's medium (GIBCO), containing 1% of penicillin 100 U/mL and […] (Sigma) and 10% of decomplemented foetal calf serum (30 min at 56° C.). The transient transfections are carried out using the FuGENE® HD transfection kit (Roche), according to the recommendations. Conventionally, 1.5 million S2 cells, previously seeded in 6-well plates (3 ml of medium per well), are transfected with 250 ng of total plasmid DNA. The DNA is brought into contact with the Fugene (3 μl) in 100 μl of OPTIMEM (GIBCO). After 20 minutes, the transfection reagent formed is brought into contact with the cells in the culture medium. The RNA of the cells is extracted 66 h after transfection.

[5] = tobacco expressing MtmiR171b, overexpression of MtmiPEP171b1 or 0.1 μM miPEP171b1, FIG. 9
[6] = overexpression of MtmiPEP171b1 (MtmiORF171b)

MFQTLYLFIYIHTNILLLS (listed as Arabidopsis thaliana) [AtmiPEP319a2]
accumulation of AtmiR319a (AtmiR319a): increase

MPSWHGMVLLPYVKHTHASTHTHTHNIYGCACELVFH (listed as Arabidopsis thaliana) [AtmiPEP164a1]
accumulation of miR164a (Northern blot) (AtmiR164a): increase | plant growth (Arabidopsis thaliana): increases plant growth significantly

MLLHRLSKFCKIERDIVYIS (listed as Medicago truncatula) [MtmiPEP171b1]
relative expression of pre-MtmiR171b (expression of MtmiR171b) (MtmiR171b [1]; tobacco expressing MtmiR171b): increases | accumulation of MtmiR171b (MtmiR171b [1]; tobacco expressing MtmiR171b, MtmiPEP171b1 sprayed (0.1 μM) twice, 12 h and 30 min before sampling): increase | accumulation of MtmiR171b (MtmiR171b [1]; [5]): increase | accumulation of pre-MtmiR171b (MtmiR171b [1]; [5]): increase | expression of MtmiR171b (pre-MtmiR171b) with MtmiPEP171b1 with or without protein tags (MtmiR171b [1]; tobacco leaves, tags His, HA or GFP): increases the expression of MtmiR171b, and this effect is independent of the presence of tags | relative expression of MtmiR171b (MtmiR171b [1]; tobacco, vector expressing mtmiPEP171b vs empty vector, ATT mutant or degenerate ORF, FIG. 21): increases | accumulation of MtmiR171b in the absence of translation of MtmiPEP171b1 (MtmiR171b [1]; tobacco, pri-MtmiR171b with ATG of miORF171b replaced with ATT (or miORF deleted) vs wild-type pri-MtmiR171b): marked decrease | accumulation of MtmiR171b (MtmiR171b [2]; vs control plant): increase | expression of the HAM1 gene (MtmiR171b [2]; vs control plant): decrease | expression of the HAM2 gene (MtmiR171b [2]; vs control plant): decrease | accumulation of pre-MtmiR171b (MtmiR171b [2]; vs control plants): increase | effect on the accumulation of the other miRNAs (precursors of MtmiR169, 169a, 171a, 171h, 393a, 393b, 396a, 396b) [3]: not on the other miRNAs | accumulation of MtmiR171b (MtmiR171b [4]): increase | expression of the HAM1 gene (MtmiR171b [4]): decrease | expression of the HAM2 gene (MtmiR171b [4]): decrease | number of lateral roots (Medicago truncatula; [6]): reduction | number of lateral roots (Medicago truncatula; watering with MtmiPEP171b1 at 0.1 μM once daily for 5 days): reduction

B1: MEPGFVFVLFPTHLSTQHTQREKSILVMGLNLQSAKQSDKQNSKERKKNTQINSQRIPYRQGGQCSKVLSP (peptide)
chain: MEPGFVFVLFPTHLSTQHTQREKSILVMGLNLQSAKQSDKQNSKERKKNTQINSQRIPYRQGGQCSKVLSP
modifications: Drosophila melanogaster
expression of DmmiR8 (relative expression of Pre-miR8) (DmmiR8; D. melanogaster cells overexpressing DmmiPEP8 vs miPEP8 with mutated start codons): increases | expression of DmmiR8 (relative expression of Pre-miR8) (DmmiR8; D. melanogaster cells overexpressing wild-type DmmiR8 vs DmmiR8 with mutated miPEP8 start codons): increases

B2: ATGCTTCTTCATAGGCTCTCCAAATTTTGCAAAATTGAAAGAGACATAGTATATATATCTTAG (nucleic acid, listed as Medicago truncatula)
DNA: ATGCTTCTTCATAGGCTCTCCAAATTTTGCAAAATTGAAAGAGACATAGTATATATATCTTAG
modifications: listed as DNA, chemistry not fully specified
relative expression of pre-MtmiR171b (expression of MtmiR171b) (MtmiR171b [1]; tobacco expressing MtmiR171b): increase | accumulation of MtmiR171b (MtmiR171b [4]): increase | expression of the HAM1 gene (MtmiR171b [4]): reduction | expression of the HAM2 gene (MtmiR171b [4]): reduction | number of lateral roots (Medicago truncatula; [6]): reduction
